Patent US20130030025A1, “USE OF POTASSIUM CHANNEL BLOCKERS TO TREAT CEREBRAL PALSY” (priority 2011, published 2013)
“And” between values parts separate entries of the source, which are not always exact repeats. Equal entries are not always repeated.

Legend:
[1] = typical; (94 ng·mL^−1); cited from earlier work
[2] = tested on: middle cerebral artery occlusion (MCAO) in rats; experiment: Cylinder test, overall limb-use asymmetry (%) after MCAO; type: in vivo, Sprague Dawley rats; settings: for Cylinder Test Score (Overall Asymmetry (%)): individual animals
Protocol: 4-AP was evaluated for its ability to promote functional sensorimotor improvement following ischemic stroke in rats with stable motor deficits at times remote from their ischemic events. The animal model mimics the conditions in human ischemic stroke and is produced by middle cerebral artery occlusion (MCAO), which results in extensive infarction in cerebral cortex and striatum, including the cortical spinal tract (white matter). In particular, the MCAO model in Sprague Dawley rats that was utilized in the experiments presented below mimics the conditions in human ischemic stroke. In this experiment, Sprague Dawley rats were anesthetized, subjected to a surgery resulting in middle cerebral artery occlusion (MCAO), treated with and without 4-aminopyridine and behavioral assessments were performed as described below. Surgical Procedure: A small focal stroke (infarct) was made on the right side of the surface of the brain (cerebral cortex) by middle cerebral artery occlusion (MCAO). The right side of the head was shaved with electric clippers (patch of approx 3×5 cm between eye and ear). The region was carefully cleaned with septisol. Using aseptic technique, an incision was made midway between the eye and eardrum canal. The temporalis muscle was isolated, bisected, and reflected. A small window of bone was removed via drill and rongeurs (subtemporal craniectomy) to expose the middle cerebral artery (MCA). Care was taken not to remove the zygomatic arch or to transect the facial nerve that would impair the ability of the animal to chew after surgery. […] The MCA was then transected. The temporalis muscle was then repositioned, and the incision was closed subcutaneously with sutures. The skin incision was closed with surgical staples (2-3 required). Throughout the procedure, body temperature was maintained at 37.0°±1° C., using a self-regulating heating pad connected to a rectal thermometer. Dosing: Rats were treated in accordance with the dosing schedule shown in Tables 1A, 1B, and FIG. 2, with each Phase being a two week period of time. A solution of 4-AP was used in this experiment. Dosing was started at 4 weeks after ischemic event. Treatment groups: Dosing was started 4 weeks after pMCAO surgery. During these 4 weeks, weekly behavioral assessments, as defined below, were performed. Two dose levels of 4-AP plus vehicle control were assessed, with treatment starting at 4 weeks after ischemic event. All dosing was via gastric gavage, volume not to exceed 2 mL/kg. Animals were given the first dose and behavioral assessments were performed starting 60 minutes after dosing. Animals then received the second dose that day at the appropriate time and b.i.d (preferably every 12 hours) thereafter for 2 more days (3 total days of dosing, 5 total doses). One hour after the 5th dose, animals were subjected to behavioral assessments as defined below. Following the final behavioral assessment, drug was withdrawn for 10 or 11 days, behavior was re-assessed, and then animals were re-challenged with a cross-over treatment (Phase II of Table 1B) as described in Tables 1A, 1B, followed by the same behavioral testing and dosing regimen. This cross-over was repeated one more time as well (Phase III of Table 1B) (see FIG. 2). Behavioral test details: Behavioral evaluations were done by investigators blinded to treatment assignment. As described above, behavioral assessments were timed exactly with dosing times. Animals were given the first dose, behavioral assessments were performed starting 60 minutes later, and blood was collected 90 minutes after dosing. Animals then received the second dose that day at the appropriate time and b.i.d (preferably every 12 hours) thereafter for 2 more days (3 total days of dosing, 5 total doses). One hour after the 5th dose, animals were subjected to behavioral testing. […]

## Nc1ccncc1 [4-AP, 4-aminopyridine]
[1]
  plasma concentrations obtained in clinical studies: < 1000 nM
[2]; Group II, D30, first dosing phase (low dose, inferred)
  Cylinder Test Score (Overall Asymmetry (%)), Mean: 26.98%
[2]; Group II, D32, first dosing phase (low dose, inferred)
  Cylinder Test Score (Overall Asymmetry (%)), Mean: 23.50%
[2]; Group II, D58, third dosing phase (high dose, inferred), N 12
  Cylinder Test Score (Overall Asymmetry (%)), Mean: 35.52%
[2]; Group II, D60, third dosing phase (high dose, inferred), N 14
  Cylinder Test Score (Overall Asymmetry (%)), Mean: 4.43%
[2]; Group III, D44, second dosing phase (high dose, inferred), N 13
  Cylinder Test Score (Overall Asymmetry (%)), Mean: 27.98%
[2]; Group III, D46, second dosing phase (high dose, inferred), N 13
  Cylinder Test Score (Overall Asymmetry (%)), Mean: 10.17%
[2]; Group III, D58, third dosing phase (low dose, inferred)
  Cylinder Test Score (Overall Asymmetry (%)), Mean: 12.32%
[2]; Group III, D60, third dosing phase (low dose, inferred)
  Cylinder Test Score (Overall Asymmetry (%)), Mean: 3.23%
[2]; group mean N=10, Group I, Phase 1, D30, High 4-AP 2.0 mg/kg b.i.d. p.o., after first dose
  Cylinder Test Score (Overall Asymmetry (%)), Mean: 17.78%
[2]; group mean N=13, Group I, Phase 1, D32, High 4-AP 2.0 mg/kg b.i.d. p.o., after 5th dose
  Cylinder Test Score (Overall Asymmetry (%)), Mean: −15.95%
[2]; group mean N=13, Group I, Phase 2, D46, Low 4-AP 0.63 mg/kg b.i.d. p.o., after 5th dose
  Cylinder Test Score (Overall Asymmetry (%)), Mean: 16.29%
[2]; group mean N=15, Group I, Phase 2, D44, Low 4-AP 0.63 mg/kg b.i.d. p.o., after first dose
  Cylinder Test Score (Overall Asymmetry (%)), Mean: 10.38%
[2]; Group I, Phase 1, D30, High 4-AP 2.0 mg/kg b.i.d. p.o., after first dose
  Cylinder Test Score (Overall Asymmetry (%)): 9.33% and 0.00% and 50.00% (3×) and 16.67% and 38.46% and −16.67% and −100.00% and 80.00%
[2]; Group I, Phase 1, D32, High 4-AP 2.0 mg/kg b.i.d. p.o., after 5th dose
  Cylinder Test Score (Overall Asymmetry (%)): 36.36% and 24.07% and 22.73% and 5.13% and −30.00% and −100.00% (2×) and 50.00% (2×) and −60.00% and −65.79% and 16.67% and −56.52%
[2]; Group I, Phase 2, D44, Low 4-AP 0.63 mg/kg b.i.d. p.o., after first dose
  Cylinder Test Score (Overall Asymmetry (%)): 60.71% and 25.81% and 39.58% and 22.81% and 31.91% and 33.33% (2×) and 39.02% and −45.45% and −60.00% and −56.06% and 40.00% and 9.30% and 10.00% and −28.57%
[2]; Group I, Phase 2, D46, Low 4-AP 0.63 mg/kg b.i.d. p.o., after 5th dose
  Cylinder Test Score (Overall Asymmetry (%)): 63.64% and 14.89% and 30.23% and 33.33% (3×) and 36.96% and −8.33% (2×) and 25.00% and −100.00% and 50.00% and 7.69%
[2]; rats after MCAO, reversible and dose-dependent
  effect on body symmetry and coordination (cylinder test): effective to improve the asymmetry in limb usage
